From patent US20150045425A1, “PELTATIN AND METABOLIC DISORDERS” (NESTEC S.A., priority 2012, published 2015)

Test system: HeLa cells
Test: Cellular toxicity, standard method, compared to untreated cells
Type: cell-based, human
Details: up to highest dose used
Protocol: The AC50 (upper part of the insert) and the maximum % activation (lower part of the insert) are given. Cellular toxicity was also assessed with standard method compared to untreated cells and shown in % of toxicity.
An edible plant fraction library was tested for PPARs agonist activity and toxicity. Then relevant plant fractions were further analyzed and bioactive(s) characterized and validated with the same hPPARa, hPPARg or hPPARd reporter bioassays. The reporter bioassay we used in order to identify anti-inflammatory plant properties targeted activation of human PPARs in human HeLa cells (as described in the FIG. 1). All isolated bioactives were tested in a dose response manner in duplicate. Assays were repeated 3-4 times. Shown are mean values obtained. Therefore specificity (for all the three known human PPAR receptors namely PPARa, PPARd and PPARg) and efficacy (full agonist i.e. % maximal activity >100% or partial agonist i.e. % maximal activity <100%) were tested (FIG. 2-4).

Measured: Cellular toxicity (% of toxicity)

COc1cc([C@@H]2c3cc4c(c(O)c3C[C@H]3COC(=O)[C@@H]32)OCO4)cc(OC)c1OC [beta-Peltatin]
no toxicity was observed: FIG. 2, PPARa activation dose-response | FIG. 3, PPARg activation dose-response | FIG. 4, PPARd activation dose-response
